In patent publication US11564920B2, “5-heteroaryl-1H-pyrazol-3-amine derivative” (Sumitomo Pharma Co., Ltd., priority 2020, dated 2023):
Where two headings read alike, the source gives them in different places.

Assays:
ES-2 cells = assay: Cell growth suppression experiment; format: cell-based; details: for IC50: Homo sapiens, 48 h, cultured for 2 days, read-out: IC50 (cell growth suppression, ranking)
Description: ES-2 cells were obtained from the American Type Culture Collection (ATCC). These cells were cultured at 37° C. in the presence of 5% CO2 in a 10% fetal bovine serum, […] penicillin/streptomycin containing McCoy's 5a medium.
500 cells were seeded for each well in a 384-well plate, and the evaluated compound was added so that the final concentration of DMSO would be 0.1% to culture the cells for 2 days. After completion of the culture, the cell viability rate was calculated using CellTiter-Glo® 3D Reagent (Promega, G968B).

MARK4 = MARK4 (Homo sapiens (Human), UniProt Q96L34); assay: Kinase selectivity test (HotSpot Full Panel Kinase profiling); format: biochemical; details: 100 nM, ATP 10 μM; read-out: Residual activity (%) MARK4 (MARKA [sic] in Table 32)
Description: (§1) Buffer: 20 mM HEPES, pH 7.5, 10 mM MgCl2, 2 mM […] (as needed), 1 mM EGTA, 0.02% Brij35, 0.02 mg/mL BSA, 0.1 mM Na3VO4, 2 mM DTT, 1% DMSO
(§2) Compound concentration: 100 nM

MELK = MELK (Homo sapiens (Human), UniProt Q14680); assay: as above; format: biochemical; details: 100 nM, ATP 10 μM; read-out: Residual activity (%) MELK
Description: as §1, §2

TNIK = TNIK (Homo sapiens (Human), UniProt Q9UKE5); assay: as above; format: biochemical; details: 100 nM, ATP 10 μM; read-out: Residual activity (%) TNIK
Description: as §1, §2

RSK4 = RSK4 (Homo sapiens (Human), UniProt Q9UK32); assay: as above; format: biochemical; details: 100 nM, ATP 10 μM; read-out: Residual activity (%) RSK4
Description: as §1, §2

TRKC = TRKC (Homo sapiens (Human), UniProt Q16288); assay: as above; format: biochemical; details: 100 nM, ATP 10 μM; read-out: Residual activity (%) TRKC
Description: as §1, §2

RET = RET (Homo sapiens (Human), UniProt P07949); assay: as above; format: biochemical; details: 100 nM, ATP 10 μM; read-out: Residual activity (%) RET
Description: as §1, §2

RSK3 = RSK3 (Homo sapiens (Human), UniProt Q15349); assay: as above; format: biochemical; details: 100 nM, ATP 10 μM; read-out: Residual activity (%) RSK3
Description: as §1, §2

CAMK2A = CAMK2A (Homo sapiens (Human), UniProt Q9UQM7); assay: as above; format: biochemical; details: 100 nM, ATP 10 μM; read-out: Residual activity (%) CAMK2A
Description: as §1, §2

RSK2 = RSK2 (Homo sapiens (Human), UniProt P51812); assay: as above; format: biochemical; details: 100 nM, ATP 10 μM; read-out: Residual activity (%) RSK2
Description: as §1, §2

SIK2 = SIK2 (Homo sapiens (Human), UniProt Q9H0K1); assay: as above; format: biochemical; details: 100 nM, ATP 10 μM; read-out: Residual activity (%) SIK2
Description: as §1, §2

RSK1 = RSK1 (Homo sapiens (Human), UniProt Q15418); assay: as above; format: biochemical; details: 100 nM, ATP 10 μM; read-out: Residual activity (%) RSK1
Description: as §1, §2

CYP3A4 = CYP3A4 (Homo sapiens (Human), UniProt P08684); assay: CYP3A4 MBI and enzyme inactivation clearance evaluation; format: in vitro ADME; details: human liver microsome
Description: The effect and mode of inhibition of the test compound on CYP3A4 were evaluated using a human liver microsome as an enzyme source and midazolam or testosterone as a substrate. […] The IC50 value was calculated from a concentration plot.

[1] = Liposome encapsulation test (Test Example 6); format: physicochemical
Description: 6.48 g of hydrogenated soybean phosphatidylcholine (COATSOME NC-21E, NOF Corporation), 2.32 g of cholesterol (Sigma) and 2.06 g of distearoylphosphatidylethanolamine-methoxypolyethylene glycol 2000 (SUNBRIGHT DSPE-020CN, NOF Corporation) were dissolved in 560 mL of t-butyl alcohol heated to 65° C. The solution was frozen with dry ice/acetone bath and t-butyl alcohol was then removed by evaporation under reduced pressure to obtain a lipid mixture.
200 mL of 250 mM ammonium sulfate solution was added to the lipid mixture. The resulting mixture was heated to 65° C. and dispersed with a homogenizer (ULTRA-TURRAX, IKA) to obtain a crude liposome dispersion. […] The prepared amount was increased or decreased appropriately.
2 to 3 mg of the test compound was weighed out. 1 mL of empty liposome solution with a total lipid concentration of 50 mM was added. An aqueous 1 mol/L hydrochloric acid or 1 mol/L sodium hydroxide solution was added to adjust the pH to 5.5 to 7. […] Insolubles, when present, were removed by centrifugation for 5 minutes at 15,000×g.
100 μL of liposome solution was passed through an ultrafiltration filter (Amicon Ultra, 100K, 0.5 mL, Merck), and centrifuged at 4° C. at 15,000×g for 10 minutes. The concentration of the compound in the filtrate after ultrafiltration was measured by HPLC as the unencapsulated compound concentration.
The liposome solution was diluted with a trifluoroacetic acid/water/methanol mixture (0.1/25/75) and was left standing for 10 minutes or longer at 5° C. The solution was centrifuged for 5 minutes at 15,000×g to remove insolubles. The compound concentration in the supernatant was measured by HPLC as the compound concentration in the liposome solution.
The encapsulation ratio and the encapsulation efficiency were calculated by the following equations. Encapsulation ratio (%)=(compound concentration in liposome solution−unencapsulated compound concentration)×100/compound concentration in liposome solution Encapsulation efficiency (%)=(compound concentration in liposome solution−unencapsulated compound concentration)×100/concentration upon compound introduction

Chain of CYP3A4 (P08684 whole entry): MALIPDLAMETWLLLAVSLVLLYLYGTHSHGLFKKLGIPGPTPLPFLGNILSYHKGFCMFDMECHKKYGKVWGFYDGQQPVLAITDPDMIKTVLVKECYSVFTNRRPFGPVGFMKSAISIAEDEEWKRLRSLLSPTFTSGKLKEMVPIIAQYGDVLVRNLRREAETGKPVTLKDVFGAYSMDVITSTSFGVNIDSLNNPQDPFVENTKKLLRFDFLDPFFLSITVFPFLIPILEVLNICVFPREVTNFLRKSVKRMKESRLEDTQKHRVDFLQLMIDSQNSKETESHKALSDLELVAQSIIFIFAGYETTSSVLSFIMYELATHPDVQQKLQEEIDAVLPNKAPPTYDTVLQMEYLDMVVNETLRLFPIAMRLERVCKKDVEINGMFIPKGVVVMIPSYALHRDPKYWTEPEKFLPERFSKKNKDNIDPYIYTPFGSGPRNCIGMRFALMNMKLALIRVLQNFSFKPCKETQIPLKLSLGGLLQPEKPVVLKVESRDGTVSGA
Chain of MARK4 (Q96L34 whole entry): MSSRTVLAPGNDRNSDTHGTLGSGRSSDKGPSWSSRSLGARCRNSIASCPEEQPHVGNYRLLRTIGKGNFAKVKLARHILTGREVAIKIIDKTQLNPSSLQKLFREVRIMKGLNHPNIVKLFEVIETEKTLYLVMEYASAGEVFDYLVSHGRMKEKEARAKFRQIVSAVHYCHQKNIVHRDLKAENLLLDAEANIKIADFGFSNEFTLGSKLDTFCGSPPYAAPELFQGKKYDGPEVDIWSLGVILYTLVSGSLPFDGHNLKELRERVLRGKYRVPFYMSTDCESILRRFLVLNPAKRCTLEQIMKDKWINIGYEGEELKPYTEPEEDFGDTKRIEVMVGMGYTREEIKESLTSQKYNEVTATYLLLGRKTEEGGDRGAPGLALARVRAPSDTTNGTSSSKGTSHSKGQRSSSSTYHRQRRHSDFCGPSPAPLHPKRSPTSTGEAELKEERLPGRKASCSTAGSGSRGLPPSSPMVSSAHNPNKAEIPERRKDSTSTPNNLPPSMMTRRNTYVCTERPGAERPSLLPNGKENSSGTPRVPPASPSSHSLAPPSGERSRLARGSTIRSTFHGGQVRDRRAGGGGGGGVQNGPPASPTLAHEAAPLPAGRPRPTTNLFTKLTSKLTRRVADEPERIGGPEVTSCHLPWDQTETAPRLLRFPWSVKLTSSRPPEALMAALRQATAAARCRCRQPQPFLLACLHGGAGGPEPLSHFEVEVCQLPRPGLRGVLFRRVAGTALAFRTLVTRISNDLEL
Chain of RSK3 (Q15349 whole entry): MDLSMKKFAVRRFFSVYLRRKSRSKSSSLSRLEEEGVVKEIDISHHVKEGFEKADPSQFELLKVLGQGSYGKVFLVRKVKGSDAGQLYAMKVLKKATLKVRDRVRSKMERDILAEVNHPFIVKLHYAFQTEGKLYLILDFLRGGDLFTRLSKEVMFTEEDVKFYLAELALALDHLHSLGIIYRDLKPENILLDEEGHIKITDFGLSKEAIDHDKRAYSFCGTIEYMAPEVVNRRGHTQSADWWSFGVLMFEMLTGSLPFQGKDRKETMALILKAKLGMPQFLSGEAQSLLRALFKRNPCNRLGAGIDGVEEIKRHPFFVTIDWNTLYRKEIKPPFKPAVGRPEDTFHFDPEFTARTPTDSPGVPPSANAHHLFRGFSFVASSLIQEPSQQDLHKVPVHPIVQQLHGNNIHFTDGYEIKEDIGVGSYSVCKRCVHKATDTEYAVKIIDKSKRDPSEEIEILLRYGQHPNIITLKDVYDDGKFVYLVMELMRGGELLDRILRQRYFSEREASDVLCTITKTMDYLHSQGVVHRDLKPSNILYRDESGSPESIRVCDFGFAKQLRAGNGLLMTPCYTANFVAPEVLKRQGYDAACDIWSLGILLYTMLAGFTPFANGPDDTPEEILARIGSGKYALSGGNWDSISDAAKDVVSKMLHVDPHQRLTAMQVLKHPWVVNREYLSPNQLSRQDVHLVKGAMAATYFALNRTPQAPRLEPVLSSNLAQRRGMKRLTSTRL
Chain of RSK4 (Q9UK32 whole entry): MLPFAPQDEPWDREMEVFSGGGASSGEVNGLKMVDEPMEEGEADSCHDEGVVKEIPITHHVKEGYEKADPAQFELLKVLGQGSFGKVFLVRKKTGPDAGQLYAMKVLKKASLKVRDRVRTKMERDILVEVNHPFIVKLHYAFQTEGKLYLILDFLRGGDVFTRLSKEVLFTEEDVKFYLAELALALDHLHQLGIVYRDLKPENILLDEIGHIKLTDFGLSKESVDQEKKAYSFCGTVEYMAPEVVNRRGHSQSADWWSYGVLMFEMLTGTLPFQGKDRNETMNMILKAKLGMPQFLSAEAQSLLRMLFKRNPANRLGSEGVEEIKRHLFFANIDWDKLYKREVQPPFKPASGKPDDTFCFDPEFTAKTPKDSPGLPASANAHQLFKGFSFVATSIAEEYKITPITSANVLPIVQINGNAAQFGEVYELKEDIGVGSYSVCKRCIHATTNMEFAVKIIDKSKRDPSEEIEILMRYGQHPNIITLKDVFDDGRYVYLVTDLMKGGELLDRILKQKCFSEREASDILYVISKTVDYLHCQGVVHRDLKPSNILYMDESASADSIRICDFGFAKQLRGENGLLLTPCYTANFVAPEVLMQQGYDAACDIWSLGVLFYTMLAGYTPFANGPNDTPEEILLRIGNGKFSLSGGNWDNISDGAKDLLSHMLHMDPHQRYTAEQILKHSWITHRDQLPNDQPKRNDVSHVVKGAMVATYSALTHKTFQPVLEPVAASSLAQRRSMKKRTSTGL
Chain of TRKC (Q16288 32-839): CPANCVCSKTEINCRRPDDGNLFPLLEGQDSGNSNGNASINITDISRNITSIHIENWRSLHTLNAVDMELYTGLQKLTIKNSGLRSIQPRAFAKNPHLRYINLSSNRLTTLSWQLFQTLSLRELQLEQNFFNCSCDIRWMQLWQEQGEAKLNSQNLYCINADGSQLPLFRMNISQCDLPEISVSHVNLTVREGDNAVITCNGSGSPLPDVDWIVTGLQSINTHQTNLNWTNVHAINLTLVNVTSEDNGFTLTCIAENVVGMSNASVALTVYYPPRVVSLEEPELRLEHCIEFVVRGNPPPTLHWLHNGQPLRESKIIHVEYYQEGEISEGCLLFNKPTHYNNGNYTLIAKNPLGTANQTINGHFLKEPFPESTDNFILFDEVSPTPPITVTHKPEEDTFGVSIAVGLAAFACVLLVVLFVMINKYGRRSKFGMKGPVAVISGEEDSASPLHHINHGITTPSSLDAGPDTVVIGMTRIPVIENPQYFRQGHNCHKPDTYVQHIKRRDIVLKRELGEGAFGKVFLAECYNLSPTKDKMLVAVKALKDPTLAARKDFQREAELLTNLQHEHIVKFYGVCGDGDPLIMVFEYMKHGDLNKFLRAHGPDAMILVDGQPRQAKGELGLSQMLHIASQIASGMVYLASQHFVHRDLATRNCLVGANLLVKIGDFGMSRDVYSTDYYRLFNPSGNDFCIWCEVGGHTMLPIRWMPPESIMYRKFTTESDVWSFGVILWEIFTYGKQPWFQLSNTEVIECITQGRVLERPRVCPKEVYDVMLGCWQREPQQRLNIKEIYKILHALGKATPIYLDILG
Chain of TNIK (Q9UKE5 whole entry): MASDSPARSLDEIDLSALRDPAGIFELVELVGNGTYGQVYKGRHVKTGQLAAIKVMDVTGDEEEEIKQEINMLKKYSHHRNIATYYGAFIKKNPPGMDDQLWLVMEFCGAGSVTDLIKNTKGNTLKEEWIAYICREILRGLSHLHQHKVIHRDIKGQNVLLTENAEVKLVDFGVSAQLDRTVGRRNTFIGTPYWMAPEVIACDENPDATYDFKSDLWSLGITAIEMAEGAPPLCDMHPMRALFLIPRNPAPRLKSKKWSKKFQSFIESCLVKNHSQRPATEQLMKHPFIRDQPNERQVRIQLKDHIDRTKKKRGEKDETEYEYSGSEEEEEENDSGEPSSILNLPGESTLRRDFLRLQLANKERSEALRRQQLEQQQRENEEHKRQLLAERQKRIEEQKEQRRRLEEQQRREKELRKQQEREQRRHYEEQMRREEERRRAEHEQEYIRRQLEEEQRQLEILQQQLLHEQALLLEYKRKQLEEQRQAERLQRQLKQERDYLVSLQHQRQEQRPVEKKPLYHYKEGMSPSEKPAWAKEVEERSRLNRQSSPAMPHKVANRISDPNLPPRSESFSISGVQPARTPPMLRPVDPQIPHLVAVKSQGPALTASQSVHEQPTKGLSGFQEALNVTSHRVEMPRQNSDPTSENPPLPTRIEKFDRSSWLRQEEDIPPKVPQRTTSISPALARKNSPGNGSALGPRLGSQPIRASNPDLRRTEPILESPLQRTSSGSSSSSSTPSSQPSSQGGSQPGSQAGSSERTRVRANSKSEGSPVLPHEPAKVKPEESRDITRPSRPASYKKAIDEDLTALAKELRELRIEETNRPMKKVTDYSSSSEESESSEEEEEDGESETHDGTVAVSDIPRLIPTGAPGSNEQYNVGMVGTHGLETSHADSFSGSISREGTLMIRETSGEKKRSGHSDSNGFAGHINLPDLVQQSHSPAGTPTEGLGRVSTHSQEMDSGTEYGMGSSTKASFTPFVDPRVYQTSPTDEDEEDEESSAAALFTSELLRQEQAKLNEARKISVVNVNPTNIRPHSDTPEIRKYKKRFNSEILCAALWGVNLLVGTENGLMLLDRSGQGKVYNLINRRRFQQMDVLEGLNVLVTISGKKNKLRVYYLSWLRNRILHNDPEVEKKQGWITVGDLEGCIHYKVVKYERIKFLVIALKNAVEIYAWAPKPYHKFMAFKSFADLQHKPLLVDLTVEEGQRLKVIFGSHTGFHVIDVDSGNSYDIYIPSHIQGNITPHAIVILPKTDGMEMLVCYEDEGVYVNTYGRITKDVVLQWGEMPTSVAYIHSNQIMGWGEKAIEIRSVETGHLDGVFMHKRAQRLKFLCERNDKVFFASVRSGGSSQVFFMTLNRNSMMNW

microsomal CLint (CYP3A4; liver microsomes, probe midazolam or testosterone)	Compound concentration in liposome solution ([1]; concentration upon compound introduction 2 mg/mL)	Compound	IC50 (ES-2 cells)	cell growth suppression effect (in words) (ES-2 cells; compared with prexasertib)	remaining activity at 0.1 µM (MARK4)	remaining activity at 0.1 µM (MELK)	remaining activity at 0.1 µM (TNIK)	remaining activity at 0.1 µM (RSK4)	remaining activity at 0.1 µM (TRKC)	remaining activity at 0.1 µM (RET)	remaining activity at 0.1 µM (RSK3)	remaining activity at 0.1 µM (CAMK2A)	remaining activity at 0.1 µM (RSK2)	remaining activity at 0.1 µM (SIK2)	remaining activity at 0.1 µM (RSK1)	Factor of change in IC50 value (CYP3A4; by pre-incubation with NADPH, MBI action when 2-fold or greater)	inhibition of CYP3A4 based on MBI (in words) (CYP3A4)	Encapsulation efficiency [1]	Encapsulation efficiency ([1]; concentration upon compound introduction 3 mg/mL)	liquid viscosity during the liposome encapsulation procedure ([1]; pH adjusted by adding 1 mol/L hydrochloric acid)
		COc1ccnc(OCCCN)c1-c1cc(Nc2cnc(C#N)cn2)n[nH]1 [Example 1, 5-({5-[2-(3-aminopropoxy)-4-methoxypyridin-3-yl]-1H-pyrazol-3-yl}amino)pyrazine-2-carbonitrile]	< 30 nM	excellent cell growth suppression effect that is equivalent to that of prexasertib	24.1%	17.2%	17.8%	9.05%	17.4%	19%	3.91%	13.9%	4.32%	14.1%	8.51%	Not Detected	do not exhibit inhibition of CYP3A4 based on MBI	≥ 80%	87.4%	increase in viscosity was not found
0.019 µL/min/mg	2160 µg/mL	COc1cccc(OCCCN)c1-c1cc(Nc2cnc(C#N)cn2)n[nH]1 [Prexasertib, reference compound]	< 30 nM		10.2%	11.4%	7.76%	4.78%	12.7%	7.12%	1.69%	2.52%	0.98%	2.62%	2.23%		exhibits inhibition of CYP3A4 based on MBI			
